Square brackets hold non-standard residues; d marks the D form. Peptide text beside a SMILES is read from it. NMeL = CN[C@@H](CC(C)C)C(=O)O; NMeV = CN[C@H](C(=O)O)C(C)C; Nva = CCC[C@H](N)C(=O)O; Sar = CNCC(=O)O
Tests used:
[1] = tested on: Hepatitis B virus; assay: Antiviral activity against Hepatitis B virus infected in human HepG2 cells expressing NTCP assessed as inhibition of viral entry by measuring intracellular HBV DNA at 1 uM preincubated with compound for 2 hrs followed by viral infection and measured after 3 hrs by qPCR analysis relative to control; format: functional; details: time 5 hrs
[2] = tested on: Hepatitis B virus; assay: Antiviral activity against Hepatitis B virus infected in human HepG2 cells expressing NTCP assessed as inhibition of viral entry by measuring intracellular HBV DNA preincubated with compound for 2 hrs followed by viral infection and measured after 3 hrs by qPCR analysis; format: functional, organism-based
[3] = Cytotoxicity against human HepG2 cells assessed as reduction in cell viability incubated for 24 hrs by MTS assay; format: toxicity, cell-based; details: read-out: LC50
[4] = target: T1, CYP1A2 (Homo sapiens, UniProt P05177); assay: Inhibition of human CYP1A2 at 10 uM preincubated for 10 mins followed by NADPH addition and measured after 20 mins by luciferin reagent based luminescence analysis; format: ADME; details: time 30 min
T1 sequence (P05177 whole entry): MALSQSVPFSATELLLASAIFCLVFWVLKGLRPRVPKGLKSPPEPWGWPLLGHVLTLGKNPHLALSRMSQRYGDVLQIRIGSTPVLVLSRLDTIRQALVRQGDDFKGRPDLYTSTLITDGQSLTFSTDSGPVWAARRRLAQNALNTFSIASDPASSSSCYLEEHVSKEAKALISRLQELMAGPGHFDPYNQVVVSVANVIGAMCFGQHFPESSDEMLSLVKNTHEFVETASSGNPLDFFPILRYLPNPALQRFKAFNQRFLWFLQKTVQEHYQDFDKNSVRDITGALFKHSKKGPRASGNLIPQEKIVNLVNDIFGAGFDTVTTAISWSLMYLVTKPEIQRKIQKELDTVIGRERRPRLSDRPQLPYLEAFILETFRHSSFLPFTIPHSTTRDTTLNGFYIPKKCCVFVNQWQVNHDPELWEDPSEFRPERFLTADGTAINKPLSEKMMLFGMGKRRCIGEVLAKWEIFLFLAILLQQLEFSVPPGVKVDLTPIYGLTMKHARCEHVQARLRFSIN

[5] = target: CYP2C19 (Homo sapiens, UniProt P33261); assay: Inhibition of human CYP2C19 at 10 uM preincubated for 10 mins followed by NADPH addition and measured after 20 mins by luciferin reagent based luminescence analysis; format: ADME; details: time 30 min
Sequence of CYP2C19 (P33261 whole entry): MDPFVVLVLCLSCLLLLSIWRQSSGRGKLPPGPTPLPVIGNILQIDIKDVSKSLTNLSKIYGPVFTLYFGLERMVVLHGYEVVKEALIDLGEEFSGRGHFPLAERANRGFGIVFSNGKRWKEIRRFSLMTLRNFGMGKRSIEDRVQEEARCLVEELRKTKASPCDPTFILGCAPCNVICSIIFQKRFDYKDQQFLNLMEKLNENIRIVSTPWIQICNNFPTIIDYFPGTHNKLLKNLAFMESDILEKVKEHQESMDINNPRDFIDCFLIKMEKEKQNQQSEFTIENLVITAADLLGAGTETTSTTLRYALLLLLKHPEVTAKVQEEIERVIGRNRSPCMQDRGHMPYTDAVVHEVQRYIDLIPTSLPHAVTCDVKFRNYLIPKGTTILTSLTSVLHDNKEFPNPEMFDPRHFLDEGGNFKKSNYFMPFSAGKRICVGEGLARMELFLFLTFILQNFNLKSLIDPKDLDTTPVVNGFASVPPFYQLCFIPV

[6] = target: CYP2D6 (Homo sapiens, UniProt P10635); assay: Inhibition of human CYP2D6 at 10 uM preincubated for 10 mins followed by NADPH addition and measured after 20 mins by luciferin reagent based luminescence analysis; format: ADME; details: time 30 min
Sequence of CYP2D6 (P10635 whole entry): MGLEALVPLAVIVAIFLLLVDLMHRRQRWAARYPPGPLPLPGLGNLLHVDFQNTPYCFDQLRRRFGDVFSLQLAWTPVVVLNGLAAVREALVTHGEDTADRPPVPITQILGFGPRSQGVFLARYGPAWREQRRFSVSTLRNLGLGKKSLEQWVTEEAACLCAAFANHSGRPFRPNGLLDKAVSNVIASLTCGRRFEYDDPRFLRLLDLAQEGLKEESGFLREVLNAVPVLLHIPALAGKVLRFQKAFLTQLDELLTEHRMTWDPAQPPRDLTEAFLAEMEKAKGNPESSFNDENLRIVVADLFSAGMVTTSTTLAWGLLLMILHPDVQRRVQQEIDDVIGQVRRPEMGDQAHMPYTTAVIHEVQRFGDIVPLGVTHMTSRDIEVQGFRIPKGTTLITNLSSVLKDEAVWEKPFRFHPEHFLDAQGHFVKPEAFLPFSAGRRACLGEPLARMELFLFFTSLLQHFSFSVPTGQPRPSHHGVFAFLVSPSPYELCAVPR

[7] = target: CYP2C9 (Homo sapiens, UniProt P11712); assay: Inhibition of human CYP2C9 at 10 uM preincubated for 10 mins followed by NADPH addition and measured after 20 mins by luciferin reagent based luminescence analysis; format: ADME; details: time 30 min
Sequence of CYP2C9 (P11712 whole entry): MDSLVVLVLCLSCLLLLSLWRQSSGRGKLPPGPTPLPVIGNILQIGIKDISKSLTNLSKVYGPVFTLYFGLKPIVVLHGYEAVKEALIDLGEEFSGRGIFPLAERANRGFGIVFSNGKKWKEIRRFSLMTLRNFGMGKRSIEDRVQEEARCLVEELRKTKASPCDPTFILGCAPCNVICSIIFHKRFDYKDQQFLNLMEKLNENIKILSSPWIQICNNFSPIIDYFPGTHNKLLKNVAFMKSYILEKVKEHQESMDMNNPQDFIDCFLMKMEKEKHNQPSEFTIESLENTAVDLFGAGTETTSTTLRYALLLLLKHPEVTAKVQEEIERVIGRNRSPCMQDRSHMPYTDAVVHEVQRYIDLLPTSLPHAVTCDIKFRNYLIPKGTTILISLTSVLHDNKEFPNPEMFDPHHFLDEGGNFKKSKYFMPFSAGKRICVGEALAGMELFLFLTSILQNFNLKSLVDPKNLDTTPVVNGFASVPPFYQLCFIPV

Row | SMILES | inhibition at 1 µM [1] | further results
1 | CCC[C@@H]1NC(=O)[C@H](CC(C)C)N(C)C(=O)[C@H](CC(C)C)N(C)C(=O)[C@H](CC(C)C)N(C)C(=O)CN(CCOC)C(=O)[C@@H](C)NC(=O)[C@@H](CCC(N)=O)NC(=O)[C@H](CC(C)C)N(C)C(=O)[C@H](C(C)C)NC(=O)[C@H](CC(C)C)N(C)C(=O)CN(C)C1=O | 72% | –
2 | CCC[C@@H]1NC(=O)[C@H](CC(C)C)N(C)C(=O)[C@H](CC(C)C)N(C)C(=O)CN(Cc2ccccc2)C(=O)[C@H](CC(C)C)N(C)C(=O)[C@@H](C)NC(=O)[C@@H](CCC(N)=O)NC(=O)[C@H](CC(C)C)N(C)C(=O)[C@H](C(C)C)NC(=O)[C@H](CC(C)C)N(C)C(=O)CN(C)C1=O | 62% | –
3 | CCC[C@@H]1NC(=O)[C@H](CC(C)C)N(C)C(=O)[C@H](CC(C)C)N(C)C(=O)[C@H](CC(C)C)N(C)C(=O)CN(CCO)C(=O)[C@@H](C)NC(=O)[C@@H](CCC(N)=O)NC(=O)[C@H](CC(C)C)N(C)C(=O)[C@H](C(C)C)NC(=O)[C@H](CC(C)C)N(C)C(=O)CN(C)C1=O | 59% | –
4 | CCC[C@@H]1NC(=O)[C@H](CC(C)C)N(C)C(=O)[C@H](CC(C)C)N(C)C(=O)CN(CCCCN)C(=O)[C@H](CC(C)C)N(C)C(=O)[C@@H](C)NC(=O)[C@@H](CCC(N)=O)NC(=O)[C@H](CC(C)C)N(C)C(=O)[C@H](C(C)C)NC(=O)[C@H](CC(C)C)N(C)C(=O)CN(C)C1=O | 57% | –
5 | CCC[C@@H]1NC(=O)[C@H](CC(C)C)N(C)C(=O)[C@H](CC(C)C)N(C)C(=O)[C@H](CC(C)C)N(C)C(=O)CN(CCCCN)C(=O)[C@@H](C)NC(=O)[C@@H](CCC(N)=O)NC(=O)[C@H](CC(C)C)N(C)C(=O)[C@H](C(C)C)NC(=O)[C@H](CC(C)C)N(C)C(=O)CN(C)C1=O | 69% | –
6 | CCC[C@@H]1NC(=O)[C@H](CC(C)C)N(C)C(=O)[C@H](CC(C)C)N(C)C(=O)[C@H](CC(C)C)N(C)C(=O)CN(Cc2ccccc2)C(=O)[C@@H](C)NC(=O)[C@@H](CCC(N)=O)NC(=O)[C@H](CC(C)C)N(C)C(=O)[C@H](C(C)C)NC(=O)[C@H](CC(C)C)N(C)C(=O)CN(C)C1=O | 69% | –
7 | CCC[C@@H]1NC(=O)[C@H](CC(C)C)N(C)C(=O)[C@H](C(C)C)N(C)C(=O)[C@H](CC(C)C)N(C)C(=O)[C@H](CC(C)C)N(C)C(=O)[C@@H](C)NC(=O)[C@@H](CCC(N)=O)NC(=O)[C@H](CC(C)C)N(C)C(=O)[C@H](C(C)C)NC(=O)[C@H](CC(C)C)N(C)C(=O)CN(C)C1=O | 57% | –
8 | CCC[C@@H]1NC(=O)[C@H](CC(C)C)N(C)C(=O)[C@H](CC(C)C)N(C)C(=O)[C@H](CC(C)C)N(C)C(=O)[C@H](CC(C)C)N(C)C(=O)[C@@H](C)NC(=O)[C@@H](CCC(N)=O)NC(=O)[C@H](CC(C)C)N(C)C(=O)[C@H](C(C)C)NC(=O)CN(Cc2ccccc2)C(=O)CN(C)C1=O | 36% | –
9 | CCC[C@@H]1NC(=O)[C@H](CC(C)C)N(C)C(=O)[C@H](C(C)C)N(C)C(=O)[C@H](CC(C)C)N(C)C(=O)[C@H](CC(C)C)N(C)C(=O)[C@@H](C)NC(=O)[C@H](C)NC(=O)[C@H](CC(C)C)N(C)C(=O)[C@H](C(C)C)NC(=O)[C@H](CC(C)C)N(C)C(=O)CN(C)C1=O (cyclo(A[dA][NMeL][NMeL][NMeV][NMeL][Nva][Sar][NMeL]V[NMeL])) | 75% | IC50 [2]: 510 nM; CC50 at 24 h [3]: > 200000 nM
10 | O=c1cc(-c2ccccc2)oc2c1ccc1ccccc12 [ALPHA-NAPHTHOFLAVONE] | – | inhibition at 20 min, 10 µM [4]: 97.1%
11 | CN(C)CCC=C1c2ccccc2CCc2ccccc21 [AMITRIPTYLINE] | – | inhibition at 20 min, 10 µM [5]: 92.1%
12 | C/C=C/C[C@@H](C)[C@@H](O)[C@H]1C(=O)N[C@@H](CC)C(=O)N(C)CC(=O)N(C)[C@@H](CC(C)C)C(=O)N[C@@H](C(C)C)C(=O)N(C)[C@@H](CC(C)C)C(=O)N[C@@H](C)C(=O)N[C@H](C)C(=O)N(C)[C@@H](CC(C)C)C(=O)N(C)[C@@H](CC(C)C)C(=O)N(C)[C@@H](C(C)C)C(=O)N1C [CYCLOSPORINE] | 83% | IC50 [2]: 400 nM
13 | C=C[C@H]1C[N@@]2CC[C@H]1C[C@@H]2[C@@H](O)c1ccnc2ccc(OC)cc12 [QUINIDINE] | – | inhibition at 20 min, 10 µM [6]: 97.5%
14 | Nc1ccc(S(=O)(=O)Nc2ccnn2-c2ccccc2)cc1 [SULFAPHENAZOLE] | – | inhibition at 20 min, 10 µM [7]: 94.4%

— ChEMBL document CHEMBL5126594, “Entry inhibition of hepatitis B virus using cyclosporin O derivatives with peptoid side chain incorporation” (Bioorg Med Chem, 2022)
